Measurements from ChEMBL document CHEMBL1149646, “2D Quantitative structure-activity relationship studies on a series of cholesteryl ester transfer protein inhibitors” (Bioorg Med Chem, 2007).

The molecules below were run against T1, Cholesteryl ester transfer protein (Homo sapiens, UniProt P11597) (assay: Inhibition of CETP).
T1 sequence (P11597 whole entry): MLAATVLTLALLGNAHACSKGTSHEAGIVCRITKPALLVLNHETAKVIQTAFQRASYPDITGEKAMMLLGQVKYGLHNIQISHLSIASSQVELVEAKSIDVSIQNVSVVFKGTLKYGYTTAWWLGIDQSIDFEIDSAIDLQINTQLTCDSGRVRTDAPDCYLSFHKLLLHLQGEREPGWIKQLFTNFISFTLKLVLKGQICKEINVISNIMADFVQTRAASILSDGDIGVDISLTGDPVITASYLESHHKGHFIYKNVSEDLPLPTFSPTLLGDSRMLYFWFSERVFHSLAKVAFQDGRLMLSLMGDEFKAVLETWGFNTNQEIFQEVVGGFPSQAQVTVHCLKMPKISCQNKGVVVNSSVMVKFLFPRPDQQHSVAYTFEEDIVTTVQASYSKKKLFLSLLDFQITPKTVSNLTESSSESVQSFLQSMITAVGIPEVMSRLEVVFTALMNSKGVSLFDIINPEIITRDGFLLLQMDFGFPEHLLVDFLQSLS

| Compound | IC50 [nM] |
| --- | --- |
| CCCCC(O)CN(Cc1cccc(OC(F)(F)F)c1)c1cccc(Oc2ccccc2)c1 (centres undefined) | 3600 |
| OC(CN(Cc1cccc(OC(F)(F)C(F)F)c1)c1cccc(Oc2ccc(F)c(F)c2)c1)C(F)(F)F (centres undefined) | 80 |
| OC(CN(Cc1cccc(OC(F)(F)C(F)F)c1)c1cccc(-c2ccncc2)c1)C(F)(F)F (centres undefined) | 6240 |
| OC(CN(Cc1cccc(OC(F)(F)C(F)F)c1)c1cccc(OCc2ccccc2CC(F)(F)F)c1)C(F)(F)F (centres undefined) | 90 |
| OC(CN(Cc1cccc(OC(F)(F)F)c1)c1cccc(Oc2ccccc2)c1)c1ccccc1 (centres undefined) | 50000 |
| CCCCc1ccc(Oc2cccc(N(Cc3cccc(OC(F)(F)C(F)F)c3)CC(O)C(F)(F)F)c2)cc1 (centres undefined) | 200 |
| Cc1cc(C)cc(Oc2cccc(CN(CC(O)C(F)(F)F)c3cccc(Oc4ccccc4)c3)c2)c1 (centres undefined) | 70 |
| CC(C)(C)c1cccc(Oc2cccc(N(Cc3cccc(OC(F)(F)C(F)F)c3)CC(O)C(F)(F)F)c2)c1 (centres undefined) | 100 |
| OC(CN(Cc1cccc2c1OC(F)(F)C(F)(F)O2)c1cccc(Oc2ccccc2)c1)C(F)(F)F (centres undefined) | 12000 |
| CC(C)(O)c1cccc(N(Cc2cccc(OC(F)(F)C(F)F)c2)CC(O)C(F)(F)F)c1 (centres undefined) | 7800 |
| OC(CN(Cc1cccc(-c2cccc(C(F)(F)F)n2)c1)c1cccc(Oc2ccccc2)c1)C(F)(F)F (centres undefined) | 4080 |
| Cc1cccc(-c2cccc(CN(CC(O)C(F)(F)F)c3cccc(Oc4ccccc4)c3)c2)n1 (centres undefined) | 15000 |
| OC(CN(Cc1cccc(OC(F)(F)C(F)F)c1)c1cccc(Oc2cccc(CC(F)(F)F)c2)c1)C(F)(F)F (centres undefined) | 30 |
| OC(CN(Cc1cccc(OC(F)(F)C(F)F)c1)c1cccc(OCc2ccccc2OC(F)(F)F)c1)C(F)(F)F (centres undefined) | 60 |
